{"source": "ChEMBL document CHEMBL1201862", "about": "“PubChem BioAssay data set” (2004)", "assay_in_all_cases": "growth of human tumour cells (NCI), 48 h", "key": {"Malme-3M": {"tested_on": "Malme-3M"}, "OVCAR-5": {"tested_on": "OVCAR-5"}, "DU-145": {"tested_on": "DU-145"}, "Hs-578T": {"tested_on": "Hs-578T"}, "786-0": {"tested_on": "786-0"}, "HOP-92": {"tested_on": "HOP-92"}, "OVCAR-4": {"tested_on": "OVCAR-4"}, "K562": {"tested_on": "K562"}, "TK-10": {"tested_on": "TK-10"}, "OVCAR-8": {"tested_on": "OVCAR-8"}, "HL-60": {"tested_on": "HL-60"}, "RPMI-8226": {"tested_on": "RPMI-8226"}, "NCI-H226": {"tested_on": "NCI-H226"}, "UACC-257": {"tested_on": "UACC-257"}, "EKVX": {"tested_on": "EKVX"}, "SK-MEL-28": {"tested_on": "SK-MEL-28"}, "SK-OV-3": {"tested_on": "SK-OV-3"}, "PC-3": {"tested_on": "PC-3"}, "SF-295": {"tested_on": "SF-295"}, "SN12C": {"tested_on": "SN12C"}, "U-251": {"tested_on": "U-251"}, "M14": {"tested_on": "M14"}, "NCI-H460": {"tested_on": "NCI-H460"}, "OVCAR-3": {"tested_on": "OVCAR-3"}, "MDA-MB-231": {"tested_on": "MDA-MB-231"}, "SF-539": {"tested_on": "SF-539"}, "MCF7": {"tested_on": "MCF7"}, "HOP-62": {"tested_on": "HOP-62"}, "KM12": {"tested_on": "KM12"}, "A549": {"tested_on": "A549"}, "HT-29": {"tested_on": "HT-29"}, "SW-620": {"tested_on": "SW-620"}, "HCT-116": {"tested_on": "HCT-116"}, "HCC 2998": {"tested_on": "HCC 2998"}, "UACC-62": {"tested_on": "UACC-62"}, "SK-MEL-2": {"tested_on": "SK-MEL-2"}, "T47D": {"tested_on": "T47D"}, "SR": {"tested_on": "SR"}, "ACHN": {"tested_on": "ACHN"}, "UO-31": {"tested_on": "UO-31"}, "MDA-N": {"tested_on": "MDA-N"}, "HCT-15": {"tested_on": "HCT-15"}, "MOLT-4": {"tested_on": "MOLT-4"}, "MDA-MB-435": {"tested_on": "MDA-MB-435"}, "SF-268": {"tested_on": "SF-268"}, "NCI-H522": {"tested_on": "NCI-H522"}, "SNB-19": {"tested_on": "SNB-19"}, "LOX IMVI": {"tested_on": "LOX IMVI"}, "A498": {"tested_on": "A498"}, "NCI/ADR-RES": {"tested_on": "NCI/ADR-RES"}, "IGROV-1": {"tested_on": "IGROV-1"}, "BT-549": {"tested_on": "BT-549"}, "SNB-75": {"tested_on": "SNB-75"}}, "note": "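96-well plates; 48 h exposure; 5 concentrations. Endpoints by linear interpolation between flanking doses. Not reached: highest tested concentration assigned. At the GI50, growth is halved.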 Activity calls are given as the source filed them. Rule as the data show it: active = GI50 up to about 1.1 µM and inactive = higher.", "data": [{"smiles": "O=S1(=O)Cc2ccc3c4c2-c2c(ccc5ccc(c-4c25)CS(=O)(=O)C3)C1", "values": [{"measurement": "GI50", "setting": "Malme-3M", "value": "> 100 µM (inactive)"}, {"measurement": "GI50", "setting": "OVCAR-5", "value": "> 100 µM (inactive)"}, {"measurement": "GI50", "setting": "DU-145", "value": "> 100 µM (inactive)"}, {"measurement": "GI50", "setting": "Hs-578T", "value": "> 100 µM (inactive)"}, {"measurement": "GI50", "setting": "786-0", "value": "49.5 µM (inactive)"}, {"measurement": "GI50", "setting": "HOP-92", "value": "89.9 µM (inactive)"}, {"measurement": "GI50", "setting": "OVCAR-4", "value": "> 100 µM (inactive)"}, {"measurement": "GI50", "setting": "K562", "value": "26.7 µM (inactive)"}, {"measurement": "GI50", "setting": "TK-10", "value": "79.6 µM (inactive)"}, {"measurement": "GI50", "setting": "OVCAR-8", "value": "90.2 µM (inactive)"}, {"measurement": "GI50", "setting": "HL-60", "value": "16.3 µM (inactive)"}, {"measurement": "GI50", "setting": "RPMI-8226", "value": "20 µM (inactive)"}, {"measurement": "GI50", "setting": "NCI-H226", "value": "> 100 µM (inactive)"}, {"measurement": "GI50", "setting": "UACC-257", "value": "> 100 µM (inactive)"}, {"measurement": "GI50", "setting": "EKVX", "value": "89.1 µM (inactive)"}, {"measurement": "GI50", "setting": "SK-MEL-28", "value": "> 100 µM (inactive)"}, {"measurement": "GI50", "setting": "SK-OV-3", "value": "> 100 µM (inactive)"}, {"measurement": "GI50", "setting": "PC-3", "value": "93.1 µM (inactive)"}, {"measurement": "GI50", "setting": "SF-295", "value": "> 100 µM (inactive)"}, {"measurement": "GI50", "setting": "SN12C", "value": "82.4 µM (inactive)"}, {"measurement": "GI50", "setting": "U-251", "value": "> 100 µM (inactive)"}, {"measurement": "GI50", "setting": "M14", "value": "> 100 µM (inactive)"}, {"measurement": "GI50", "setting": "NCI-H460", "value": "63.2 µM (inactive)"}, {"measurement": "GI50", "setting": "OVCAR-3", "value": "> 100 µM (inactive)"}, {"measurement": "GI50", "setting": "MDA-MB-231", "value": "> 100 µM (inactive)"}, {"measurement": "GI50", "setting": "SF-539", "value": "51.9 µM (inactive)"}, {"measurement": "GI50", "setting": "MCF7", "value": "92.3 µM (inactive)"}, {"measurement": "GI50", "setting": "HOP-62", "value": "> 100 µM (inactive)"}, {"measurement": "GI50", "setting": "KM12", "value": "41.9 µM (inactive)"}, {"measurement": "GI50", "setting": "A549", "value": "> 100 µM (inactive)"}, {"measurement": "GI50", "setting": "HT-29", "value": "57 µM (inactive)"}, {"measurement": "GI50", "setting": "SW-620", "value": "71 µM (inactive)"}, {"measurement": "GI50", "setting": "HCT-116", "value": "46.3 µM (inactive)"}, {"measurement": "GI50", "setting": "HCC 2998", "value": "> 100 µM (inactive)"}, {"measurement": "GI50", "setting": "UACC-62", "value": "87.1 µM (inactive)"}, {"measurement": "GI50", "setting": "SK-MEL-2", "value": "> 100 µM (inactive)"}, {"measurement": "GI50", "setting": "T47D", "value": "55.3 µM (inactive)"}, {"measurement": "GI50", "setting": "SR", "value": "10.2 µM (inactive)"}, {"measurement": "GI50", "setting": "ACHN", "value": "20.7 µM (inactive)"}, {"measurement": "GI50", "setting": "UO-31", "value": "43.3 µM (inactive)"}, {"measurement": "GI50", "setting": "MDA-N", "value": "> 100 µM (inactive)"}, {"measurement": "GI50", "setting": "HCT-15", "value": 22.9, "unit": "µM"}, {"measurement": "GI50", "setting": "MOLT-4", "value": "23.1 µM (inactive)"}, {"measurement": "GI50", "setting": "MDA-MB-435", "value": "> 100 µM (inactive)"}, {"measurement": "GI50", "setting": "SF-268", "value": "53.1 µM (inactive)"}, {"measurement": "GI50", "setting": "NCI-H522", "value": "46.8 µM (inactive)"}, {"measurement": "GI50", "setting": "SNB-19", "value": "> 100 µM (inactive)"}, {"measurement": "GI50", "setting": "LOX IMVI", "value": "44.6 µM (inactive)"}, {"measurement": "GI50", "setting": "A498", "value": "> 100 µM (inactive)"}, {"measurement": "GI50", "setting": "NCI/ADR-RES", "value": "> 100 µM (inactive)"}, {"measurement": "GI50", "setting": "IGROV-1", "value": "29.8 µM (inactive)"}, {"measurement": "GI50", "setting": "BT-549", "value": "91.8 µM (inactive)"}, {"measurement": "GI50", "setting": "SNB-75", "value": "69.7 µM (inactive)"}]}]}
